Reference: ChEMBL document CHEMBL3885881, “DrugMatrix”

Organism: Rattus norvegicus
Test: DrugMatrix - Regimen: Daily Repeat
Format: toxicity, organism-based, Sprague-Dawley
Parameters: regimen Daily Repeat, gender Male, age 6-8 weeks
Details: in vivo, po, 17 mg/kg, route oral GAVAGE, dose level Low, vehicle 100 % SALINE; for ABSOLUTE BASOPHIL / ABSOLUTE EOSINOPHIL / ABSOLUTE LYMPHOCYTE / ABSOLUTE MONOCYTE / ABSOLUTE SEGMENTED NEUTROPHIL / BASOPHIL / EOSINOPHIL / ERYTHROCYTE COUNT / HEMATOCRIT / HEMOGLOBIN / LEUKOCYTE COUNT / LYMPHOCYTE / MEAN CORPUSCULAR HEMOGLOBIN / MEAN CORPUSCULAR HEMOGLOBIN CONCENTRATION / MEAN CORPUSCULAR VOLUME / MONOCYTE / NEUTROPHIL / NUCLEATED RED BLOOD CELLS / PLATELET COUNT: tissue Blood; for ALANINE AMINOTRANSFERASE / ALBUMIN / ALKALINE PHOSPHATASE / ASPARTATE AMINOTRANSFERASE / BLOOD UREA NITROGEN / CARBON DIOXIDE / CHLORIDE / CHOLESTEROL / CREATINE PHOSPHOKINASE / CREATININE / GLUCOSE / LACTATE DEHYDROGENASE / LIPASE / PHOSPHORUS / POTASSIUM / SODIUM / TOTAL BILIRUBIN / TOTAL PROTEIN / URIC ACID: tissue Plasma

## O=P1(NCCCl)OCCCN1CCCl (stereo unspecified) [IFOSFAMIDE]
72 h, time 3 day
  ABSOLUTE BASOPHIL: 0 CELLS/uL
  ABSOLUTE EOSINOPHIL: 0 CELLS/uL
  ABSOLUTE LYMPHOCYTE: 7711.33 CELLS/uL
  ABSOLUTE MONOCYTE: 107 CELLS/uL
  ABSOLUTE SEGMENTED NEUTROPHIL: 448.33 CELLS/uL
  BASOPHIL: 0%
  EOSINOPHIL: 0%
  ERYTHROCYTE COUNT: 6.17 x10E6/uL
  HEMATOCRIT: 39.13%
  HEMOGLOBIN: 15.1 G/DL
  LEUKOCYTE COUNT: 8.27 x10E3/uL
  LYMPHOCYTE: 93.33%
  MEAN CORPUSCULAR HEMOGLOBIN: 24.47 pg
  MEAN CORPUSCULAR HEMOGLOBIN CONCENTRATION: 38.6 G/DL
  MEAN CORPUSCULAR VOLUME: 63.47 fL
  MONOCYTE: 1.33%
  NEUTROPHIL: 5.33%
  NUCLEATED RED BLOOD CELLS: 0 /100WBC
  PLATELET COUNT: 648 x10E3/uL
  ALANINE AMINOTRANSFERASE: 47.33 u/L
  ALBUMIN: 4.43 G/DL
  ALKALINE PHOSPHATASE: 256.67 u/L
  ASPARTATE AMINOTRANSFERASE: 80.33 u/L
  BLOOD UREA NITROGEN: 15 mg/dL
  CARBON DIOXIDE: 38.67 mmol/L
  CHLORIDE: 95.67 MEQ/L
  CHOLESTEROL: 85 mg/dL
  CREATINE PHOSPHOKINASE: 300 u/L
  CREATININE: 0.31 mg/dL
  GLUCOSE: 148.67 mg/dL
  LACTATE DEHYDROGENASE: 171.67 u/L
  LIPASE: 11.33 u/L
  PHOSPHORUS: 11.57 mg/dL
  POTASSIUM: 6.47 MEQ/L
  SODIUM: 144.97 MEQ/L
  TOTAL BILIRUBIN: 0.2 mg/dL
  TOTAL PROTEIN: 6.5 G/DL
  URIC ACID: 1.23 mg/dL
120 h, time 5 day
  ABSOLUTE BASOPHIL: 0 CELLS/uL
  ABSOLUTE EOSINOPHIL: 0 CELLS/uL
  ABSOLUTE LYMPHOCYTE: 4979.67 CELLS/uL
  ABSOLUTE MONOCYTE: 84.33 CELLS/uL
  ABSOLUTE SEGMENTED NEUTROPHIL: 269.33 CELLS/uL
  BASOPHIL: 0%
  EOSINOPHIL: 0%
  ERYTHROCYTE COUNT: 5.71 x10E6/uL
  HEMATOCRIT: 35.77%
  HEMOGLOBIN: 13.23 G/DL
  LEUKOCYTE COUNT: 5.33 x10E3/uL
  LYMPHOCYTE: 93%
  MEAN CORPUSCULAR HEMOGLOBIN: 23.13 pg
  MEAN CORPUSCULAR HEMOGLOBIN CONCENTRATION: 37.2 G/DL
  MEAN CORPUSCULAR VOLUME: 62.3 fL
  MONOCYTE: 1.67%
  NEUTROPHIL: 5.33%
  NUCLEATED RED BLOOD CELLS: 0 /100WBC
  PLATELET COUNT: 184 x10E3/uL
  ALANINE AMINOTRANSFERASE: 92.33 u/L
  ALBUMIN: 4.3 G/DL
  ALKALINE PHOSPHATASE: 295.33 u/L
  ASPARTATE AMINOTRANSFERASE: 158.33 u/L
  BLOOD UREA NITROGEN: 17 mg/dL
  CARBON DIOXIDE: 38 mmol/L
  CHLORIDE: 94 MEQ/L
  CHOLESTEROL: 79.67 mg/dL
  CREATINE PHOSPHOKINASE: 366 u/L
  CREATININE: 0.26 mg/dL
  GLUCOSE: 149.67 mg/dL
  LACTATE DEHYDROGENASE: 519 u/L
  LIPASE: 9.67 u/L
  PHOSPHORUS: 12.83 mg/dL
  POTASSIUM: 7.12 MEQ/L
  SODIUM: 144.83 MEQ/L
  TOTAL BILIRUBIN: 0.17 mg/dL
  TOTAL PROTEIN: 6.57 G/DL
  URIC ACID: 1.43 mg/dL
